In brackets after ≈: the same amount, converted by molar mass.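 These data come from cells grown in 96-well plates and exposed to compound for 48 hours at five concentrations. Abbreviation: GI50, concentration required for 50% inhibition of growth. TGI is the concentration that stops growth completely.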
Assays:
Assay in all cases: growth of human tumour cells (NCI), 48 h; in the data active = GI50 below about 0.43 µM; inactive = the rest
[1] = tested on: A498 renal
[2] = tested on: EKVX NSCLC
[3] = tested on: HCT-116 colon
[4] = tested on: HL-60(TB) leukemia
[5] = tested on: HOP-62 NSCLC
[6] = tested on: HOP-92 NSCLC
[7] = tested on: HS 578T breast
[8] = tested on: IGROV1 ovarian
[9] = tested on: MDA-MB-231 breast
[10] = tested on: NCI-H226 lung
[11] = tested on: RPMI-8226 leukemia
[12] = tested on: RXF 393 renal
[13] = tested on: SN12C renal
[14] = tested on: SNB-75 CNS
[15] = tested on: SR leukemia
[16] = tested on: T-47D breast
[17] = tested on: UO-31 renal
[18] = tested on: 786-0 renal
[19] = tested on: A549 NSCLC
[20] = tested on: ACHN renal
[21] = tested on: BT-549 breast
[22] = tested on: CAKI-1 renal
[23] = tested on: CCRF-CEM leukemia
[24] = tested on: COLO 205 colon
[25] = tested on: DU-145 prostate
[26] = tested on: HCC-2998 colon
[27] = tested on: HCT-15 colon
[28] = tested on: HT29 colon
[29] = tested on: KM12 colon
[30] = tested on: LOX IMVI melanoma
[31] = tested on: M14 melanoma
[32] = tested on: MALME-3M melanoma
[33] = tested on: MCF7 breast
[34] = tested on: MDA-MB-435
[35] = tested on: MOLT-4 leukemia
[36] = tested on: NCI-H23 lung
[37] = tested on: NCI-H460 lung
[38] = tested on: NCI/ADR-RES ovarian
[39] = tested on: OVCAR-3 ovarian
[40] = tested on: OVCAR-4 ovarian
[41] = tested on: OVCAR-5 ovarian
[42] = tested on: OVCAR-8 ovarian
[43] = tested on: PC-3 prostate
[44] = tested on: SF-268 CNS
[45] = tested on: SF-295 CNS
[46] = tested on: SF-539 CNS
[47] = tested on: SK-MEL-28 melanoma
[48] = tested on: SK-MEL-5 melanoma
[49] = tested on: SK-OV-3 ovarian
[50] = tested on: SNB-19 CNS
[51] = tested on: SW-620 colon
[52] = tested on: TK-10 renal
[53] = tested on: U251 CNS
[54] = tested on: UACC-257 melanoma
[55] = tested on: UACC-62 melanoma

Nc1nccc2c([N+](=O)[O-])cccc12
48.8 µg/mL: TGI [2]
inactive: GI50 [1] 31.7 µg/mL (≈ 168 µM) | GI50 [2] 5.93 µg/mL (≈ 31.3 µM) | GI50 [3] 84.3 µg/mL | GI50 [4] 78.3 µg/mL | GI50 [5] 61.5 µg/mL | GI50 [6] 21.4 µg/mL | GI50 [7] 52 µg/mL (≈ 275 µM) | GI50 [8] 86.3 µg/mL | GI50 [9] 92 µg/mL | GI50 [10] 87.4 µg/mL | GI50 [11] 40.4 µg/mL | GI50 [12] 87.4 µg/mL | GI50 [13] 92.9 µg/mL | GI50 [14] 55.3 µg/mL | GI50 [15] 25.7 µg/mL | GI50 [16] 77.1 µg/mL | GI50 [17] 53.4 µg/mL

Cc1ccc(C2CC(c3ccc(Nc4ccnc5cc(Cl)ccc45)cc3)=NN2C=O)cc1 (configuration not stated)
6.21 µM: TGI [4]
> 100 µM: TGI [18] | TGI [19] | TGI [20] | TGI [21] | TGI [22] | TGI [23] | TGI [24] | TGI [25] | TGI [26] | TGI [3] | TGI [27] | TGI [5] | TGI [6] | TGI [28] | TGI [8] | TGI [29] | TGI [30] | TGI [31] | TGI [32] | TGI [33] | TGI [9] | TGI [34] | TGI [35] | TGI [10] | TGI [36] | TGI [37] | TGI [38] | TGI [39] | TGI [40] | TGI [41] | TGI [42] | TGI [43] | TGI [11] | TGI [12] | TGI [44] | TGI [45] | TGI [46] | TGI [47] | TGI [48] | TGI [49] | TGI [13] | TGI [50] | TGI [14] | TGI [51] | TGI [16] | TGI [52] | TGI [53] | TGI [54] | TGI [55] | TGI [17]
inactive: GI50 [18] 50.9 µM | GI50 [19] 9.86 µM | GI50 [20] 3.27 µM | GI50 [21] 5.64 µM | GI50 [22] > 100 µM | GI50 [23] 2.25 µM | GI50 [24] 4.59 µM | GI50 [25] > 100 µM | GI50 [26] 7.44 µM | GI50 [3] 25.2 µM | GI50 [27] 2.78 µM | GI50 [4] 2.27 µM | GI50 [5] > 100 µM | GI50 [6] 2.14 µM | GI50 [28] 6.09 µM | GI50 [8] 26.6 µM | GI50 [29] 6.64 µM | GI50 [30] 4.11 µM | GI50 [31] 6.88 µM | GI50 [32] > 100 µM | GI50 [33] 8.39 µM | GI50 [9] 6.09 µM | GI50 [34] 1.95 µM | GI50 [35] 5.13 µM | GI50 [10] > 100 µM | GI50 [36] 6.93 µM | GI50 [37] > 100 µM | GI50 [38] 5.22 µM | GI50 [39] 6.82 µM | GI50 [40] 5.15 µM | GI50 [41] > 100 µM | GI50 [42] > 100 µM | GI50 [43] 4.61 µM | GI50 [11] 2.18 µM | GI50 [12] 4.89 µM | GI50 [44] 8.61 µM | GI50 [45] 4 µM | GI50 [46] > 100 µM | GI50 [47] > 100 µM | GI50 [48] 1.74 µM | GI50 [49] > 100 µM | GI50 [13] 7.23 µM | GI50 [50] > 100 µM | GI50 [14] > 100 µM | GI50 [15] 3.18 µM | GI50 [51] > 100 µM | GI50 [16] 1.65 µM | GI50 [52] > 100 µM | GI50 [53] > 100 µM | GI50 [54] > 100 µM | GI50 [55] 4.13 µM | GI50 [17] 5.49 µM
10.2 µM: TGI [15]
